System: HEK293T cells
Test: Cell fractionation: distribution of RHO GTPases
Format: cell-based
Conditions: 10 μM
Method: centrifugation for 20 min in 20000 x g, supernatants were collected and loaded on a Ni-NTA column (Qiagen, Hilden, Germany). The protein was eluted by passing a buffer containing 300 mM imidazole into the Ni-NTA column. The eluted solution was further purified on an analytical Superdex 75 column (10/300 GL, GE-Healthcare, Uppsala, Sweden) using 20 mM HEPES-NaOH pH 7.4, 150 mM NaCl, 3 mM DTT, 5 mM MgCl2 and 0.5% (w/v) Na-cholate as buffer system. Non-prenylated RAC1 and human RHOGDI1 were prepared from E. coli as a GST recombinant protein as described previously.6
For expression of GST-PDEδ, E. coli RosettaTM2 cells transformed with PDE6D expression plasmid (pGex4T5) were inoculated in TB medium containing 100 μg/ml ampicillin and 30 μg/ml chloramphenicol to a total volume of 10 L. The protein expression in E. coli was induced with 0.2 mM IPTG at OD600 = 1.33. Cells were cultivated overnight at 18 ° C with shaking.
Cells then were pelleted by centrifugation at 4000xg for 20 min at 4 ° C and stored at -20 ° C. […]
NIH/3T3 cells were seeded in a 96 plate (10,000 cell per well/ plate name: Essen Bioscience NO 4379). […] Cell migration was monitored using IncuCyte ZOOM for a period of 48 h. The images were analyzed by the Incucyte Scratch Wound Analysis Software. […]

## COC(=O)C1(C(CC(=O)c2cccnc2)c2ccccc2)N=C(c2ccc(Br)cc2)C2C(=O)N(C)C(=O)C21 (stereo not shown) [7l]
  Subcellular localization of membrane-bound RHO GTPases (in words): from the plasma membrane to the endoplasmic reticulum (ER) membrane
